# In PMC12040169 (PLOS Biology, 2025):
# Test: in vitro
# Conditions: human, hela cells, % viability
row,SMILES,"viability at 28.5 h, 10 µM [%]"
1,CC(C)NC(=O)c1cc([C@H]2CC[C@H](CNC(=O)Cn3cccn3)CC2)nc2ccccc12 [CBK285859],112
2,COc1ccc(CNC(=O)[C@H]2C=CCN2C(=O)C2CC2)cc1 [CBK282326],109
3,COc1ccc(S(=O)(=O)N2CCN(C(=O)c3cc(-c4ccncc4)nc4ccc(Br)cc34)CC2)cc1 [CBK267750],101
4,CC1CC(/N=C2/NCCS2)CC(C)(C)C1 (stereo not shown) [CBK020293],102
5,COc1ccc2[nH]cc(CCNC(=O)[C@@H]3Cc4c([nH]c5ccccc45)C4(CCN(Cc5ccc(F)cc5)C4)N3)c2c1 (stereo partly shown) [CBK066937],98
6,CCN1CCN(c2c(Cl)cccc2NC(=O)c2ccc(N3CCOCC3)c([N+](=O)[O-])c2)CC1 [CBK269066],98.8
7,Cc1ccc(S(=O)(=O)NCCSc2ccccc2)cc1[N+](=O)[O-] [CBK263991],93.6
8,Nc1ccc2ccc(-c3ccccc3)nc2n1 [CBK061865],97
9,Cc1ccc(C(C)C)c(OC(=O)c2ccc3nccnc3c2)c1 [CBK269114],62.7
10,Fc1cccc2sc(Nc3nc(-c4ccccn4)cs3)nc12 [CBK287479],108
11,Cc1cc(-c2nccnc2N2CCN(CCN(C)C)CC2)cc(C)c1O [CBK037184],105
12,CN(C)CCNC(=O)c1cccc(Oc2ccccc2)c1 [CBK270310],83.1
13,Cc1cccc(-c2noc(CNC(=O)CSc3ccccc3)n2)c1 [CBK270209],98.3
14,Fc1ccc(OCc2nn3cnnc3s2)cc1 [CBK287288],102
15,c1ccc2c(OCc3nc4ccccc4[nH]3)cccc2c1 [CBK262969],106
16,O=C(CCn1c(C(F)F)cc2cccnc21)NCC1CCCO1 (stereo not shown) [CBK282165],83
17,CC(C)C(=O)Nc1ccc2c(-c3ccc4c(c3)OCCCO4)ccnc2n1 [CBK073675],96.7
18,Cc1ccccc1C(=O)NC(=S)NCCN1CCOCC1 [CBK288475],94.5
19,O=C1CC(=O)N(Cc2ccccc2)C(=O)N1 [CBK224014],91.7
20,C=C(C)c1cccc(C(C)(C)NC(=O)N2CCC(C(=O)NC(c3ccc(OC)nc3)c3ccccc3C)CC2)c1 (stereo not shown) [CBK074871],92.2
21,CC1CCC2(CC1)NC(=O)N(Cc1csc(-c3ccco3)n1)C2=O (stereo not shown) [CBK304279],98.6
22,CS(=O)(=O)Nc1ncc(-c2ccco2)cc1C(=O)NCc1nc2ccccc2[nH]1 [CBK076468],103

row,SMILES,"viability at 28.5 h, 10 µM [%]"
1,CCN1CCN(c2ccc(-c3ccc(OCC4CCN(C(=O)OC(C)(C)C)CC4)cn3)cn2)CC1 [CBK174505],109
2,O=[N+]([O-])c1ccc(OCCOc2nccnc2N2CCNCC2)c2ncccc12 [CBK000623C],94.9
3,Cc1cc(=O)oc2cc(NC(=S)NNC(=O)C3CCN(Cc4ccc(F)cc4Cl)CC3)ccc12 [CBK266953],99.4
4,CCn1ncnc1CN1CCN(C2Cc3ccccc3C2)CC1 [CBK304401],101
5,O=C1CCc2cc(S(=O)(=O)NC(c3ccccc3)c3ccccc3)cc3c2N1CCC3 [CBK294418],95.6
6,CCOc1cccc(-c2cncc(N[C@H](C)c3ccccc3)n2)c1 [CBK066042],103
7,CC(=O)N1CCCCC[C@@H]2[C@@H]1C[C@@H](Cc1ccccc1)N2C(=O)c1ccccc1 [CBK285576],115
8,COc1ccc(Br)cc1/C=C/C(=O)NC(=S)Nc1cc(C(=O)O)ccc1Cl [CBK265564],90.7
9,Cn1cnnc1SCC(C)(C)NS(=O)(=O)c1ccccc1 [CBK268276],96.4
10,COC(=O)c1sccc1NS(=O)(=O)c1ccc(C(F)(F)F)cc1 [CBK200041],95.5
11,Cc1cc(=O)oc2cc(OC(C)C(=O)NCC(=O)O)ccc12 (stereo not shown) [CBK286829],106
12,COCCn1c(SCc2cn3c(C)cc(C)nc3n2)nc(C)c1C [CBK306489],89.3
13,CCCn1c(C)nnc1CN(CC1CCCO1)C1CCC(C)CC1 (stereo not shown) [CBK304485],92
14,FC(F)(F)c1ccnc(Sc2ccccn2)n1 [CBK093786],99.3
15,C=Cn1ncc(CN2CCC(O)(c3ccccc3C)CC2)c1C [CBK282582],88.6
16,COc1ccc(C2C=C(c3ccc(OC)c(OC)c3)Nc3ncnn32)c(OC)c1 (stereo not shown) [CBK293934],93.3
17,C(=N\c1ccc(-c2nc3ccc(/N=C/c4ccncc4)cc3[nH]2)cc1)/c1ccncc1 [CBK261681],89.8
18,Cc1c(C(=O)O)sc2nc(C=Cc3cc([N+](=O)[O-])ccc3Cl)[nH]c(=O)c12 [CBK295613],121
19,COc1ccccc1C(=O)Nc1ccccc1C(=O)Nc1ccc(C(=O)O)cc1 [CBK268625],94.7
20,CC(=O)N1CCC[C@@H](N)[C@@H]1c1ccccc1F [CBK281562],111
21,O=C(Nc1ncccc1O)c1c(O)c2ccccc2n(Cc2ccccc2)c1=O [CBK291211],103
22,COc1ccc(NC(=O)C2CC(=O)NC3=C2C(=O)CC(c2ccco2)C3)cc1 (stereo not shown) [CBK270282],90.6

row,SMILES,"viability at 28.5 h, 10 µM [%]"
1,C/C(=N\O)c1oc2ccccc2c(=O)c1O [CBK010642],98.6
2,Cc1c(CN(Cc2ccccc2)CC2CCCO2)cnn1C (stereo not shown) [CBK283263],94.3
3,O=C(c1ccc[nH]1)N1CCc2ccccc21 [CBK200285],72.6
4,O=[N+]([O-])c1cnc(NS(=O)(=O)c2ccccc2Br)s1 [CBK067539],96.2
5,Cc1ccc2[nH]c(-c3cncn3C(C)CN3CCOCC3)c(C)c2c1 (stereo not shown) [CBK281794],103
6,Cc1cccc(-c2noc([C@@H]3C[C@@H](O)CN3Cc3ccccn3)n2)c1 [CBK288837],98.2
7,COCCCNCC#CCOc1ccccc1OC [CBK267419G],94.5
8,Cc1c(C(=O)N2CCCCC2)sc2nc(C(F)(F)F)nn12 [CBK006455],105
9,Cc1ccc(C(=O)Nc2ccc(N3CCCCC3)c(F)c2)c(=O)n1C [CBK281390],89.5
10,O=C(C1CC1)N1CCCC(c2nc(-c3cccs3)no2)C1 (stereo not shown) [CBK281944],97.1
11,O=C(NCc1ccc(Cl)c(Cl)c1)c1cncc(-c2ccc(C(=O)N3CCOCC3)cc2)c1 [CBK158612],98.2
12,Cn1ncc2c1CCCN(C(=O)c1cccc(C(F)(F)F)c1)C2 [CBK282252],87.3
13,c1ccc(CN2CCN(c3ccc(Nc4cc(-c5ccncc5)ncn4)cc3)CC2)cc1 [CBK037727],92.3
14,COc1ccc(NC2=NN(c3ccccc3)C(=O)C2)cc1 [CBK288085],104
15,CNc1nc(Cn2ncc(N3CCCN(C)CC3)cc2=O)cs1 [CBK307446],92.8
16,CN(CCN1CCCCC1)C(=O)c1cc2c([nH]1)CCCC2 [CBK281836],86.5
17,CN1CCN(C(=O)c2[nH]c3ccccc3c2NS(=O)(=O)Cc2ccccc2)CC1 [CBK050046],93.9
18,CN1CCN(CCCNC(=O)N2CCCC(CO)C2)CC1 (stereo not shown) [CBK156029],99.7
19,OCCn1ncc2c(Nc3cccc(Cn4cncn4)c3)ncnc21 [CBK305965],115
20,FC(F)(F)c1cnc(Oc2ccc(-n3ccnc3)cc2)c(Cl)c1 [CBK161625],90.9
21,CC1=NN(c2ccc([N+](=O)[O-])cc2)C(=O)/C1=C/NCc1ccc(S(N)(=O)=O)cc1 [CBK262670],111
22,CCCN1CCN(S(=O)(=O)c2ccc(C)cc2)CC1 [CBK270326],90

row,SMILES,"viability at 28.5 h, 10 µM [%]"
1,COC(=O)c1ccccc1NC(=O)CSc1nnc(-c2ccccc2Cl)[nH]1 [CBK265966],95.4
2,Nc1nccnc1C(=O)Oc1ccccc1 [CBK090311],88.1
3,O=C1CC(c2cccs2)Sc2nc3ccccc3n21 (stereo not shown) [CBK091627],110
4,Cc1cc(C)n(CCCNC(=O)Cc2csc(N3CCCC3=O)n2)n1 [CBK305708],94.6
5,COCCc1nsc(N2CCC(N(C)c3cccnn3)CC2)n1 [CBK304701],94.1
6,CC(=O)N[C@H](Cc1c[nH]c2ccccc12)C(=O)N1CC[C@H]2NC(=O)[C@H](Cc3ccccc3)NC(=O)C3(C/C=C/C[C@H]2C1)CCOCC3 [CBK292205],89.9
7,S=C(NCCN1CCCCC1)NCC1CCCO1 (stereo not shown) [CBK268129],107
8,Cc1cc(NC(=O)Cc2ccc(Cl)c(Cl)c2)c2ccccc2n1 [CBK116266],99.3
9,CC(C)(CO)CNc1nc(-c2ccc3c(c2)OCO3)cnc1N [CBK063459],105
10,O=c1[nH]c(=O)c2cc(S(=O)(=O)Nc3ccc(Cn4ccnc4)cc3)ccc2[nH]1 [CBK286383],105
11,Nc1cccc(Oc2ccc(C(=O)O)c(C(=O)O)c2)c1 [CBK261180],89.4
12,CCN1CCN(c2ccc(C(=O)OC)cc2NC(=O)c2ccccc2C)CC1 [CBK269902],92.9
13,CS(=O)(=O)N(Cc1ccccc1)c1ccc(C(=O)Nc2ccc(-c3ccccc3)cc2)cc1 [CBK262754],90.6
14,Cc1cc(NS(=O)(=O)c2ccc(Nc3nc(-c4ccc(Cl)cc4Cl)cs3)cc2)no1 [CBK267298],104
15,CCNc1cc(-c2ccc(Cl)cc2)ncn1 [CBK090880],99
16,CC(NC(=O)CCc1cccnc1)c1nc(-c2ccncc2)cs1 (stereo not shown) [CBK306243],90.8
17,Cc1cc2ccccc2n1CCCNC(=O)c1ccc(=O)n(C)c1 [CBK282982],104
18,Cc1ccc2nsnc2c1NC(=O)CN1CCCCC1 [CBK269330],110
19,CCCNc1nc(-c2cc(OC)c(OC)c(OC)c2)cn2ccnc12 [CBK066363],99.2
20,O=C(O)c1cccc(-c2ccc(/C=C3\SC(=S)N(Cc4ccco4)C3=O)o2)c1 [CBK265726],98.3

# Same assay, conditions: human, hela cells, % viability, bulk resorufin, single well
row,SMILES,"viability at 28.5 h, 10 µM [%]"
1,C1=C(c2ccccc2)CCNC1 [CBK012268C],104
2,CCOc1cc(/C=C2/C(=O)NC(=S)N(c3ccccc3CC)C2=O)ccc1OC(C)C(=O)O (stereo not shown) [CBK264460],97.8
